Experimental findings from ChEMBL document CHEMBL1201862, “PubChem BioAssay data set” (2004) are described below.

Holding throughout (assay): NCI tumour cell line growth inhibition, 48 h
Test [1] concerns NCI/ADR-RES.
In test [2] the test system is Malme-3M.
In test [3] the test system is SK-MEL-28.
In test [4] the test system is UACC-62.
The subject of test [5] is IGROV-1.
In test [6] the test system is HCT-116.
Test [7] concerns SNB-19.
The subject of test [8] is LOX IMVI.
Test [9] has as its system RXF 393.
In test [10] the test system is SK-MEL-5.
The subject of test [11] is RPMI-8226.
In test [12] the test system is 786-0.
Test [13] has as its system SF-539.
For test [14], the system named is EKVX.
For test [15], the system named is SN12C.
Test [16] has as its system SF-268.
Test [17] has as its system NCI-H23.
In test [18] the test system is SNB-75.
In test [19] the test system is HL-60.

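Where inhibition never reached the appropriate level, the endpoint shown equals the highest concentration tested. Otherwise, values were interpolated linearly from a five-concentration, 48-hour dose response in 96-well plates. GI50: concentration for 50% inhibition of growth.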 Calls of active or inactive are those of the source. Cut-off read from the data, not from the text of the source: active = GI50 up to about 1.1 µM and inactive = higher. Bounds are passed on as bounds.

On to `N#CC1=C2SCCN2C(=O)C(C#N)C12CCCCC2` (stereo unspecified), for which the GI50 in test [1], in [2], in test [3], in [4], in test [5] and in [6] was > 100 µM (inactive) each time. Moreover, the GI50 in [7] was > 100 µM (inactive); in [8], > 100 µM (inactive); in test [9], 59.4 µM (inactive); in test [10], > 100 µM (inactive); in [11], > 100 µM (inactive); in test [12], > 100 µM (inactive). Also, the GI50 in test [13], in [14], in [15], in test [16], in [17] and in test [18] was > 100 µM (inactive) each time.

With `COC(=O)C1CC(C=[N+](C)C)=C(SC)N1` (stereo unspecified), the GI50 in [1], in test [2], in [3], in test [4], in test [5] and in test [6] was > 100 µM (inactive) throughout. The GI50 in [7], in [9], in test [10], in [11], in test [12] and in test [14] was > 100 µM (inactive) throughout. Also, the GI50 in [16], in [17] and in test [18] was > 100 µM (inactive) in each case.

Turning to `Cc1ccccc1NC(=O)C1C(=O)N(c2ccccc2C)C(=O)/C1=N\NC(N)=S` (stereo unspecified), the GI50 in test [2], in test [3], in test [4], in test [5], in test [19] and in test [6] was > 100 µM (inactive) in each case. The GI50 in [7], in [8], in test [11], in [12], in test [13] and in test [14] was > 100 µM (inactive) throughout. The GI50 in [15], in test [16], in test [17] and in test [18] was > 100 µM (inactive) throughout.

`CCCCNC(=O)Cn1c2ccc(Br)cc2c2nc3ccccc3nc21`: the GI50 is 42.2 µM (inactive) in [1]; > 100 µM (inactive) in test [3]; > 100 µM (inactive) in [4]; > 100 µM (inactive) in [5]; 64.3 µM (inactive) in test [6]; > 100 µM (inactive) in [7]. For the same compound, the GI50 was > 100 µM (inactive) in test [8]; > 100 µM (inactive) in [9]; > 100 µM (inactive) in [10]; > 100 µM (inactive) in test [11]; > 100 µM (inactive) in [12]; 84.3 µM (inactive) in [15]. For the same compound, the GI50 in test [16] is 97.1 µM (inactive); in test [17], > 100 µM (inactive); in [18] it was 51.9 µM (inactive).

As for `CN(C)[C@@H]1C(O)=C(C(=O)NCN2CCN(C(=N)NC(=N)N)CC2)C(=O)[C@@]2(O)C(O)=C3C(=O)c4c(O)cccc4[C@@](C)(O)[C@H]3C[C@@H]12`, the GI50 was 0.269 µM (active) in [2]; 0.238 µM (active) in [3]; 0.172 µM (active) in test [4]; 0.207 µM (active) in test [5]; 0.0236 µM (active) in test [19]; 0.221 µM (active) in [6]. Further, the GI50 in [7] was 0.314 µM (active); in test [8], 0.156 µM (active); in [9], 0.12 µM (active); in test [10], 0.183 µM (active); in test [11], 0.0315 µM (active); in test [13], 0.216 µM (active). Further, the GI50 in test [14] is 0.286 µM (active); in test [15], 0.338 µM (active); in [16], 0.518 µM (active); in test [17], 0.136 µM (active); in test [18], 0.138 µM (active).

Regarding `CC(C)CC1C(=O)OC(C)(C)OC1=O`, the GI50 in [1], in test [3], in test [4], in test [5], in [6] and in test [7] was > 100 µM (inactive) throughout. The GI50 in [8], in [9], in test [10], in [11], in test [12] and in [13] was > 100 µM (inactive) in each case. Moreover, the GI50 in test [14], in test [15], in test [16], in [17] and in test [18] was > 100 µM (inactive) each time.

Take `Cc1ccsc1/C=N/NC1=NCCN1`: the GI50 in test [1], in test [2], in [3], in test [4], in test [5] and in test [6] was > 100 µM (inactive) in each case. For the same compound, the GI50 in test [7], in test [8], in test [9], in test [10], in test [11] and in test [12] was > 100 µM (inactive) in each case. Moreover, the GI50 in test [14], in [15], in test [16], in [17] and in [18] was > 100 µM (inactive) each time.

Consider `CCCCc1ccc(Nc2cc(=O)n(C)c(=O)[nH]2)cc1`, for which the GI50 in test [1] is 57.4 µM (inactive); in [2], > 100 µM (inactive); in test [3], > 100 µM (inactive); in test [4], > 100 µM (inactive); in test [5], > 100 µM (inactive); in test [6], 72.6 µM (inactive). Moreover, the GI50 is 52.1 µM (inactive) in test [7]; 39.8 µM (inactive) in test [8]; > 100 µM (inactive) in test [9]; > 100 µM (inactive) in test [10]; > 100 µM (inactive) in [11]; > 100 µM (inactive) in test [12]. Besides, the GI50 in test [13] was 84.3 µM (inactive); in [14] it was > 100 µM (inactive); in [15], > 100 µM (inactive); in [16], 64.4 µM (inactive); in [17] it was > 100 µM (inactive); in test [18], > 100 µM (inactive).

`COC(CNC(=O)C(C)NC(=O)C(C)NC(=O)c1ccccc1)OC` (stereo unspecified): the GI50 in [1], in [2], in test [4], in test [5], in test [6] and in [9] was > 100 µM (inactive) throughout. Moreover, the GI50 in test [10], in test [11], in test [12], in test [13], in test [14] and in test [15] was > 100 µM (inactive) each time. For the same compound, the GI50 in test [16], in [17] and in test [18] was > 100 µM (inactive) in each case.

On to `O=C(CC(C(=O)c1cccs1)c1ccccc1)c1ccccc1O` (stereo unspecified), for which the GI50 is 6.01 µM (inactive) in test [1]; 20 µM (inactive) in test [3]; 14.7 µM (inactive) in test [4]; 4.98 µM (inactive) in [5]; 4.74 µM (inactive) in test [6]; 23.9 µM (inactive) in [7]. Also, the GI50 in [8] was 12.4 µM (inactive); in test [9] it was 5.19 µM (inactive); in [10] it was 9.48 µM (inactive); in test [11], 12.8 µM (inactive); in test [12] it was 9.91 µM (inactive); in [13], 34.1 µM (inactive). For the same compound, the GI50 in test [14] was 12.7 µM (inactive); in test [15], > 20.7 µM (inactive); in [16] it was 8.28 µM (inactive); in test [17], > 42.6 µM (inactive); in test [18], > 20.6 µM (inactive).

Turning to `OC12CCC3(O)c4ccccc4C3C1c1ccccc12` (stereo unspecified), the GI50 in test [2], in test [3], in [4], in [19], in test [6] and in [7] was > 100 µM (inactive) in each case. Also, the GI50 in test [8], in test [9], in test [10], in [11], in test [12] and in [14] was > 100 µM (inactive) each time. In addition, the GI50 in test [15], in [16], in [17] and in test [18] was > 100 µM (inactive) in each case.

Turning to `CC(C)(Oc1ccc(C2C[C@H]2Cl)cc1)C(=O)O` (stereo partly specified), the GI50 in test [3], in test [4], in [5], in [19], in test [6] and in [7] was > 100 µM (inactive) in each case. Besides, the GI50 in test [8], in [9], in [10], in test [11], in test [12] and in [13] was > 100 µM (inactive) each time. The GI50 in [14], in [15] and in test [18] was > 100 µM (inactive) in each case.
